This is an account of results in PMC8220737, “Molecular docking, chemo-informatic properties, alpha-amylase, and lipase inhibition studies of benzodioxol derivatives” (BMC Chemistry, 2021).

Assay [1] deals with T1, porcine pancreatic amylase enzyme (Sus scrofa, UniProt P00690).
T1 construct: purchased Frutarom (UK)
T1 sequence (P00690 16-511): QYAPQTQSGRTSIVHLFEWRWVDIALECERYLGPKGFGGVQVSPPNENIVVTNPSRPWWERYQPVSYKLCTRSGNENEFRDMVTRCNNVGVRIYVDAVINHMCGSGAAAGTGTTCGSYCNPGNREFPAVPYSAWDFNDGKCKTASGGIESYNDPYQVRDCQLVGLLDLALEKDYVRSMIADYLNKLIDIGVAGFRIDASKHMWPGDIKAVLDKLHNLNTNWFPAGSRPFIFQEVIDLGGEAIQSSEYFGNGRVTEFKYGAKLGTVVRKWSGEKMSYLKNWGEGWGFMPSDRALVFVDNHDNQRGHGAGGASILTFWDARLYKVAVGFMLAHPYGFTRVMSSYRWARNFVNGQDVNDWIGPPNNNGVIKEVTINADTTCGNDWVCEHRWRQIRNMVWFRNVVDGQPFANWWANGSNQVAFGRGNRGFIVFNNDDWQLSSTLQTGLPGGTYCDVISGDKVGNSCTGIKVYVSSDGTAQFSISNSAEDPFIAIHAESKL
The assay is described as follows: α-Amylase inhibitory activity (DNSA method). It is filed as biochemical. As to conditions: for IC50 (µg/ml) α-amylase / pIC50: five concentrations 1, 10, 50, 100, 500 µg/ml, acarbose positive control; for potency relative to acarbose, α-amylase: folds more potent than acarbose. From the text: The in vitro antidiabetic activity of the synthesized compounds was investigated by assessing their α-amylase inhibitory effects. Acarbose was used as a positive control.
The following materials were purchased from Frutarom (UK): β-carotene, porcine pancreatic amylase enzyme solution, starch, dinitrosalicylic acid (DNSA), methanol, trolox, gallic acid, Na2CO3, and acarbose.
The α-amylase inhibitory assessment was based on the Wickramaratne et al. protocol with some slight alterations in some steps. The experimental part was carried out by following the 3,5-dinitrosalicylic acid (DNSA) procedure. Solutions of 20 mm sodium phosphate monobasic and sodium phosphate dibasic buffer involving 6.7 mm sodium chloride (NaH2PO4 and Na2HPO4, both including 6.7 mm NaCl, pH 6.9) were constructed by partially filling the beaker with NaH2PO4 and NaCl solution; the mixture was subjected to a magnetic stirrer. In contrast, the pH was adjusted by inserting a calibrated pH electrode in the solution. Then, the Na2HPO4 and NaCl solution was gradually added until the pH reached 6.9. A weight of 5.36 g of 20 mm Na2HPO4. 7H2O and 0.39 g of 6.7 mm NaCl were dispersed in distilled water to make 1 L and a weight of 2.76 g of NaH2PO4. […] Working solutions with concentrations of 1, 10, 50, 100 and 500 µg/ml were obtained by mixing 0.01, 0.1, 0.5, 1, and 5 ml of our synthesized molecules, respectively, and then diluting them with a buffer of Na2HPO4/NaH2PO4 (0.02 M) and NaCl (0.006 M) at pH 6.9 and then brined up to 10 ml using VF (10 ml). The acarbose was considered a reference and was established following the same previous steps used for the synthesized molecules.
A starch solution with a concentration of 1% (w/v) was prepared by suspending 1000 mg of starch in 100 ml of distilled water using V.F (100 ml), and then it was kept in a water bath at 37 °C until use, with occasional mixing to prevent starch precipitation. DNSA was used as a reactive reagent to react with reducing sugars to produce 3-amino-5- nitro salicylic acid that is highly absorbent of light at about 540 nm. It was prepared by dissolving 12 g of sodium potassium tartrate tetrahydrate in 8.0 ml of 2 M NaOH (8 g in 100 ml distill. water) then further dissolved in 20 ml of 96 mm of 3.5-dinitrosalicylic acid solution.
Then, 200 μl of the amylase solution (2 units/ml) was gently shaken with 200 μl of each of the VOs established working solutions, and then this was incubated at 37 °C for 10 min. Then 200 μl of the starch solution was added to each test tube, and there was further incubation for 3 min at 37 °C. The addition of 200 μl DNSA terminated the reaction and then boiling for 10 min at 85 to 90 °C. The mixture was then cooled to room temperature and diluted with 5 ml of distilled water, and the absorbance was recorded at 540 nm using a UV–Visible spectrophotometer. Replacement of the synthesized compounds with 200 μl of buffer was established to obtain the blank sample. In this protocol, acarbose was the positive control sample.

The target of assay [2] is T2, porcine pancreatic lipase (Sus scrofa, UniProt P00591).
T2 sequence (P00591 1-450): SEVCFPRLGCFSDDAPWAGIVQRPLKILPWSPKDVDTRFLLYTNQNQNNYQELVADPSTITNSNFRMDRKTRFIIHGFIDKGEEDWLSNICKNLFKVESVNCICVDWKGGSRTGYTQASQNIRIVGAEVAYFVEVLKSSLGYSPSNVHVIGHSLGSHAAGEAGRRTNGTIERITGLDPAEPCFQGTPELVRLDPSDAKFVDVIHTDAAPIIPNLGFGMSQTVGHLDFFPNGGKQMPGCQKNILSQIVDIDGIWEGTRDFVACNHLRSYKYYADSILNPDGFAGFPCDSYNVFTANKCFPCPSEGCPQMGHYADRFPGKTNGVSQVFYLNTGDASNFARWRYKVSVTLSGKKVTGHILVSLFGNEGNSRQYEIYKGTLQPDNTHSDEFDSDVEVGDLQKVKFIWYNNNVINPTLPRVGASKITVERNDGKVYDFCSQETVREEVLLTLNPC
The assay is described as follows: Anti-lipase activity (PNPB hydrolysis). It counts as biochemical. As to conditions: for IC50 (µg/ml) Lipase: five dilutions 40, 100, 200, 300, 400 µg/ml, orlistat positive control; for IC50: read-out: IC50 (µg/ml) Lipase (converted). Here is the method: A solution of 1 mg/ml of the synthesized compounds was mixed with 10% dimethyl sulfoxide (DMSO) and then diluted with 10% DMSO to produce five dilutions (40, 100, 200, 300, and 400 µg/ml).
A freshly prepared stock solution of pancreatic lipase enzyme was established by suspending this enzyme in 10% DMSO to form 1 mg/ml. Firstly, 25 mg of lipase was suspended in a small amount of 10% DMSO, bringing the volume up to 25 ml in V.F (25 ml), this was then put in a water bath sonicator at 37 °C for 15 min. […] The pancreatic lipase inhibition assay was conducted by adopting the procedure in the references with slight modifications. From each working solution of the synthesized compounds prepared above, 200 µl of the synthesized compounds were taken and put in a separate test tube, then 100 µl of porcine pancreatic lipase (1 mg/ml) was added to it. The resulting mixture was then adjusted to 1000 µl after addition to the 700 µl of Tris–HCl solution, and then it was incubated in a water bath at 37 °C for 15 min. After the incubation, 100 µl of PNPB (p-nitrophenyl butyrate) solution was added to each test tube. This mixture was then incubated again in a water bath at 37 °C for 30 min. A solution characterized as a negative control was constructed without the synthesized compounds, using 100 µl of porcine pancreatic lipase (1 mg/ml) solution mixed with the Tris–HCl solution up to 1 ml after the addition of 900 µl. […] The % inhibition of the synthesized compounds was calculated by using the following equation: Inhibitory lipase%=Ab-As/Ab∗100

pIC50: −log10 of the molar value. ≈ marks a conversion by molar mass, not a printed value. Where “and” joins values, the source holds several entries; their conditions need not be identical. Equal values may be shown once.

Regarding `COC(=O)Cc1cc2c(cc1C(=O)c1cccc(I)c1)OCO2` [3d], the “IC50 (µg/ml) α-amylase” value in assay [1] came out at 16.36 ± 0.75 µg/mL (≈ 38.6 µM). In addition, the “IC50 (µg/ml) Lipase” value in assay [2] turned out to be 118.86 ± 2.1 µg/mL (≈ 280 µM).

Regarding `O=C(O)Cc1cc2c(cc1C(=O)c1ccccc1Cl)OCO2` [4a], the “IC50 (µg/ml) α-amylase” value in assay [1] was 8.88 ± 2.10 µg/mL (≈ 27.9 µM). Also, the “IC50 (µg/ml) Lipase” value in assay [2] was more than 400 µg/mL.

As for `COC(=O)Cc1cc2c(cc1C(=O)c1ccccc1Br)OCO2` [3e], the “IC50 (µg/ml) α-amylase” value in assay [1] was determined as 2.57 ± 0.90 µg/mL (≈ 6.81 µM). Besides, in assay [2], the “IC50 (µg/ml) Lipase” value was determined as 78.37 ± 1.72 µg/mL (≈ 208 µM).

For `COC(=O)Cc1cc2c(cc1C(=O)c1ccccc1I)OCO2` [3c], the “IC50 (µg/ml) α-amylase” value in assay [1] turned out to be 39.85 ± 1.3 µg/mL (≈ 93.9 µM). In addition, in assay [2], the “IC50 (µg/ml) Lipase” value was more than 400 µg/mL.

On to `O=C(O)Cc1cc2c(cc1C(=O)c1ccccc1)OCO2` [4c], for which the “IC50 (µg/ml) α-amylase” value in assay [1] came to 4.12 ± 1.63 µg/mL (≈ 14.5 µM). Moreover, the “IC50 (µg/ml) Lipase” value in assay [2] amounted to 213.82 ± 2.1 µg/mL (≈ 752 µM).

For orientation: pIC50 means −log10 of the IC50, conventionally taken in molar units. Read a high pIC50 as a low IC50. `O=C(O)Cc1cc2c(cc1C(=O)c1ccccc1Br)OCO2` [4f]: in assay [1], the pIC50 is 5.51 and the “potency relative to acarbose, α-amylase” value was “five to six folds more potent than acarbose”. For the same compound, in assay [2], the IC50 is 800 µM.

In turn, `COC(=O)Cc1cc2c(cc1C(=O)c1ccccc1Cl)OCO2` [3a] gave a pIC50 in assay [1] of 5.12. Also, the IC50 in assay [2] was 437 µM.

As for `COc1cc(NC(=O)c2ccc3c(c2)OCO3)cc(OC)c1` [6b], the pIC50 in assay [1] is 4.85. The IC50 in assay [2] was 335 µM.

`COc1ccc(NC(=O)c2ccc3c(c2)OCO3)cc1OC` [6a]: the “IC50 (µg/ml) α-amylase” value in assay [1] was 8.54 µg/mL and 8.547 ± 1.55 µg/mL. Moreover, in assay [2], the “IC50 (µg/ml) Lipase” value was 44.47 ± 2.30 µg/mL (≈ 148 µM).

For the compound `COC(=O)Cc1cc2c(cc1C(=O)c1cccc(Br)c1)OCO2` [3f], the “IC50 (µg/ml) α-amylase” value in assay [1] was found to be 9.29 ± 1.4 µg/mL (≈ 24.6 µM). Also, the “IC50 (µg/ml) Lipase” value in assay [2] was more than 400 µg/mL.

`O=C(O)Cc1cc2c(cc1C(=O)c1cccc(Br)c1)OCO2` [4 g]: in assay [1], the “IC50 (µg/ml) α-amylase” value turned out to be 4.90 ± 2.21 µg/mL (≈ 13.5 µM). In assay [2], the “IC50 (µg/ml) Lipase” value was 225.8 ± 1.43 µg/mL (≈ 622 µM).

For the compound `COC(=O)Cc1cc2c(cc1C(=O)c1ccccc1)OCO2` [3b], in assay [1], the “α-amylase inhibitory activity in words” value is listed as “lowest activity” and the “IC50 (µg/ml) α-amylase” value came out at 61.45 ± 1.5 µg/mL (≈ 206 µM). Moreover, the “IC50 (µg/ml) Lipase” value in assay [2] was more than 400 µg/mL.

On to `O=C(O)Cc1cc2c(cc1C(=O)c1cccc(Cl)c1)OCO2` [4b], for which, in assay [1], the “IC50 (µg/ml) α-amylase” value was determined as 1.25 ± 1.01 µg/mL (≈ 3.92 µM) and the “potency relative to acarbose, α-amylase” value is “five to six folds more potent than acarbose”. For the same compound, in assay [2], the “IC50 (µg/ml) Lipase” value is more than 400 µg/mL.

Regarding `O=C(O)Cc1cc2c(cc1C(=O)c1ccccc1I)OCO2` [4d], the “IC50 (µg/ml) α-amylase” value in assay [1] turned out to be 7.95 ± 1.15 µg/mL (≈ 19.4 µM). Also, the “IC50 (µg/ml) Lipase” value in assay [2] stood at 187.7 ± 1.23 µg/mL (≈ 458 µM).

On to `O=C(O)Cc1cc2c(cc1C(=O)c1cccc(I)c1)OCO2` [4e], for which, in assay [1], the “IC50 (µg/ml) α-amylase” value came to 3.85 ± 0.98 µg/mL (≈ 9.39 µM). The “IC50 (µg/ml) Lipase” value in assay [2] was 201.2 ± 2.37 µg/mL (≈ 491 µM).
